{"source": "patent US20230390315A1", "about": "“COMPOSITIONS AND METHODS FOR TREATING ISCHEMIC CONDITIONS” (The Regents of the University of California, priority 2020, published 2023)", "key": {"[1]": {"system": "BCEC confluent monolayers", "assay": "BCEC scratch assay", "assay_type": "cell-based, bovine", "protocol": "BCECs (passage 6-10) and HUVEC (passage 6-8) were used in this assay. Cells were grown until about 80% confluency in 6-well plates, washed twice with PBS and then starved in serum-free DMEM (low Glucose, Hyclone) for 5 hrs before making a “scratch” using 1 ml tip. Cell monolayers were briefly washed once with serum-free media, followed by various treatments in media containing 1% FBS. 48 hrs later, the assay was stopped by adding 2 ml 4% paraformaldehyde. 20 min later, fixed cells were stained with 1 ml Crystal Violet (Sigma). Plates were washed gently under the running tap water and air-dried before taking pictures. Images were acquired by ZEISS Discovery […] microscopy equipped with […] camera. Quantification of wound closure was done using AxioVision LE Rel.4.4 software. Six images were taken for each sample and six measurements (in pixel) were made on each image using AxioVision LE Rel.4.4 software."}, "[2]": {"system": "bovine choroidal microvascular endothelial cells (BCEC)", "assay": "BCEC proliferation assay", "assay_type": "cell-based", "protocol": "Proliferation assays with BCECs and BRECs were performed. Log-phase growing BCECs or BRECs (passage <10) were trypsinized, re-suspended and seeded in 96-well plates (no coating) in low-glucose DMEM supplemented with 10% bovine calf serum, 2 mM glutamine, and antibiotics (growth medium), at a density of 1200-1500 cells per well in 200 μl volume. All reagents were added at the indicated final concentrations. […] Fluorescence was measured at 530 nm excitation wavelength and 590 nm emission wavelength. The experiments were repeated at least three times. […] On each 96-well plate, untreated and VEGF-treated (10/ng/ml) wells were included to monitor plate-to-plate variations. 20% methanol or 0.05% DMSO served as negative controls. 0.05% DMSO served as negative controls when Cas was tested in these cells. Human […] and human adult […] were split into Gelatin-coated 96 wells (2000 cells per well) in low glucose DMEM containing 10% FBS. 1200 cells/well was set up for proliferation assay in low glucose media containing FBS. […] HUVEC (p7-10) were grown on gelatin-coated plate until it reached 70-80% confluency. On the day of the assay, cells were dissociated with 0.05% trypsin, which was neutralized with 0.5% FBS-containing EBM. Cells were briefly spun and then re-suspended in 0.5% FBS-media. Cells were counted and plated in 96-well, 1000 cells/well. Triplicate wells were used for each treatment. Data were collected at day 3, and then cells were fixed in 4% paraformaldehyde for 15 min before adding crystal violet. Cell-covered areas were quantified after taking pictures by Image J software."}, "[3]": {"system": "VEGFR2", "assay": "Western blot of VEGFR2 molecular mass in BCECs and BRECs", "assay_type": "cell-based, bovine", "protocol": "Glycerol-free PNGase F was obtained from New England Biolabs (Ipswich, MA). Briefly, BCECs were lysed with NP-40 containing proteinase inhibitors (Thermo Scientific, Waltham, MA). Lysates were cleared at 4° C. at 5000 g for 25 mins. Total protein content was measured using Pierce BCA protein assay kit (ThermoScientific). […] of protein was mixed with 10× denaturing buffer and H2O to a total volume of […]. Glycoproteins were denatured at 100° C. for 10 mins, followed by adding Glycobuffer and PNGase F. The reaction was carried out at 37° C. for 2 hr.\nCells were allowed to reach ˜80% confluency in 12-well plates. […] At various time points, plates were taken out of the incubator and kept on ice. Cell monolayers were first washed once with ice-cold PBS before lysis with 250 μl of Pierce RIPA buffer (ThermoFisher Scientific, Rockford, IL) or use 50 mM Tris-HCl (pH 7.6), 150 mM NaCl, 10% Glycerol, 1% NP-40 containing protease/Phosphatase inhibitor cocktail (100×) (Cell signaling, #5872). Lysates were collected and mixed with 4×Bolt LDS Sample Buffer (Novex, Carlsbad, CA) in the presence of Halt protease inhibitors and phosphatase inhibitor cocktail (ThermoFisher scientific, #NP0007). The samples were subjected to SDS-PAGE (Bolt 4-12% Bis-Tris Plus, Invitrogen) using Bolt MES SDS running buffer or NuPAGE 3-8% Tris-Acetate gel using Tris-Acetate SDS running buffer (Novex). HUVECs (passage 6-8) were plated in EBM-2 basal medium (Lonza) with 0.2% FBS. […] Equal amounts of protein lysates were analyzed by SDS-PAGE and blotted with the indicated antibodies. Proteins were transferred using Tris-Glycine buffer with 20% Methanol (Proteonomics grade) (Apex BioResearch Products). Membranes were first incubated with 5% milk in TBST, pH 7.6 (TEKnova, Hollister, CA), followed by blotting with primary and secondary antibodies. ECL anti-rabbit IgG, horseradish peroxidase linked whole antibody from donkey or sheep anti-mouse were obtained from GE Healthcare (UK limited). SuperSignal West Dura Extended Duration substrate was from ThermoFisher Scientific. In some cases, the same PVDF membranes were stripped by 8-min incubation in the Restore Plus Western Blot Stripping Buffer (ThermoFisher Scientific) to show total specific protein expression, followed by second stripping for β-actin expression."}, "[4]": {"system": "retinal vasculature", "assay": "Retinal neovascularization after intravitreal injection", "assay_type": "in vivo, mouse", "settings": "intravitreal 500 ng ManN or Kif, 200 ng bFGF; seven days", "protocol": "Assessment of retinal angiogenesis following intravitreal administration was done. Briefly, 6-8 weeks old C57BL/6 male mice were randomly allocated to different groups and anesthetized with ketamine/Xylazine cocktail. The indicated amounts of ManN, Kif or bFGF (R&D systems, AF-233-NA) in 1 μl of PBS and PBS vehicle control were injected intravitreally with a 33-gauge Hamilton syringe. Seven days after injection, animals were euthanized. Eyes were then enucleated and fixed in 4% paraformaldehyde (PFA) for 30 mins. Retinas were separated and stained with anti-CD31 immunofluorescence (IF) to evidence the vasculature. Evaluations were performed by an investigator blinded to the treatment. For CD31 IF, rat anti-mouse antibody (BD Biosciences, CAT #550274) was diluted 1:100 and incubated overnight at 4° C. After 4-hour incubation with the Alexa Fluor-488-conjugated anti-rat antibody (Life Technologies, A11006), whole mounts were imaged via the 488 nm channel using A1R Confocal STORM super-resolution system (Nikon). Quantification of vascular density in choroids and retina was carried out by Image J. Each experiment was repeated three times with similar results, and each treatment group consists of 5 individual samples."}}}
{"smiles": "N[C@H](C=O)[C@@H](O)[C@H](O)[C@H](O)CO", "note": "[ManN, 2-Amino-2-deoxy-D-mannose]", "values": [{"measurement": "closure of the scratched area compared to control", "setting": "[1]; 40 uM ManN or 50 ng/ml of VEGF, after 48 hours", "result": "significantly accelerated"}, {"measurement": "additivity of ManN and VEGF in scratch assay", "setting": "[1]; both ManN and VEGF", "result": "additivity was observed"}, {"measurement": "dose range with significant stimulatory effects", "setting": "[2]", "result": "5 to 500", "unit": "µM"}, {"measurement": "additivity with VEGF in promoting BCEC proliferation", "setting": "[2]; 5 ng/ml VEGF", "result": "additive with VEGF"}, {"measurement": "additivity with bFGF in promoting BCEC proliferation", "setting": "[2]; 20 ng/ml bFGF", "result": "Additive effects"}, {"measurement": "fold increase in fluorescence units upon AlamarBlue addition", "setting": "[2]; 50 uM ManN and 5 ng/ml VEGF, compared to VEGF alone", "result": "2.5-3 fold"}, {"measurement": "maximal fold increase in EC-covered surface", "setting": "[2]; ManN at 50 uM alone, crystal violet, FIG. 1A", "result": "~6.5", "unit": "fold"}, {"measurement": "dependence of VEGFR2 mass decrease and BCEC proliferation stimulation on VEGFR2 signaling", "setting": "[2]; experiments with VEGFR2 inhibitor axitinib", "result": "not dependent on VEGFR2 signaling"}, {"measurement": "additivity between ManN and VEGF in glucose-free media", "setting": "[2]; glucose-free media", "result": "abolished"}, {"measurement": "concentration with significant cytotoxicity", "setting": "[2]; glucose-free media, even in the presence of VEGF", "result": 4, "unit": "µM"}, {"measurement": "dose-response of effects on BCEC proliferation", "setting": "[2]; with or without VEGF", "result": "bell-shaped dose-response curve, with inhibition at higher concentrations"}, {"measurement": "duration of ManN effects on protein mass in the absence of exogenous ManN", "setting": "[3]; BCECs", "result": "at least 8 hours"}, {"measurement": "concentration at which VEGFR2 molecular mass shift starts", "setting": "[3]; BCECs and BRECs", "result": 40, "unit": "µM"}, {"measurement": "effect on apparent molecular mass of VEGFR2", "setting": "[3]; BCECs and BRECs", "result": "shifted significantly"}, {"measurement": "new lower molecular weight VEGFR2 bands", "setting": "[3]; BCECs, control major band ~230 KDa, minor ~210 KDa", "result": "170-200 KDa"}, {"measurement": "extent of loss of VEGFR2 glycosylation (PNGase F treatment)", "setting": "[3]; ManN at uM concentrations", "result": "not all the glycosylation on VEGFR2 was abolished"}, {"measurement": "reversibility of effects on VEGFR2 molecular mass after ManN removal", "setting": "[3]; after 24 hours", "result": "completely reverse"}, {"measurement": "increase in density of retinal vessels compared to PBS group", "setting": "[4]", "result": "~30", "unit": "%"}]}
{"smiles": "O=C1N[C@@H]2[C@@H](O)[C@@H](O)[C@H](O)[C@@H](CO)N2C1=O", "note": "[Kif, Kifunensine, reference compound]", "values": [{"measurement": "activity of glycosylation inhibitors in BCEC scratch assay", "setting": "[1]; over 48 hours relative to control", "result": "significant activity"}, {"measurement": "BCEC proliferation with N-glycosylation inhibitors", "setting": "[2]; absence or presence of 5 ng/ml VEGF", "result": "stimulated in a dose-dependent fashion"}, {"measurement": "VEGFR2 molecular mass after glycosylation inhibitor treatment", "setting": "[3]; 24 hours, SDS-PAGE", "result": "reduction in VEGFR2 molecular mass"}, {"measurement": "increase in density of retinal vessels compared to PBS group", "setting": "[4]", "result": "~20", "unit": "%"}]}
